melting point [°C] | SMILES
219 to 221 | N#Cc1ccc2c(c1)S(=O)c1ccccc1CC2=O (centres undefined)
71 to 72 | O=C(Cc1c[nH]c2ccccc12)OCc1ccccc1
168 to 181 | O=C(Nc1nc(-c2ccco2)c(C(=O)C2CCCC2)s1)c1ccncc1
84 to 85 | C/C(=C\c1ccncc1)c1ccc2c(c1)C(C)(C)CCC2(C)C
91 | O=S(=O)(CCCl)c1ccc(Cl)cc1
89 to 90 | CC(C)c1cc(CO)n(Cc2ccc(Cl)cc2Cl)n1
100 to 102 | CCCSc1nc2c(cc1C#N)C(=O)CC(C)(C)C2
127 | Cc1nc(S(=O)Cc2ccc(Cl)cc2)nc2c1CCCC2 (centres undefined)
267 to 271 | COc1ccc2nc(COc3ccc(CC4SC(=O)NC4=O)cc3)n(C)c2c1 (centres undefined)
> 260 | N#Cc1ccc(-c2ccc(C(=O)O)cn2)cc1
72 to 76 | COCc1cc(OC)c(C=O)c(OC)c1
272 to 273 | O=C1CCC(c2ccc(NC(=O)C3CC3)cc2)=NN1
208 | O=C1c2cc3c(cc2CCC1NC(=O)C(F)(F)F)CCO3 (centres undefined)
194 to 196 | O=C(Nc1ccccc1Oc1ccc(Cl)cc1Cl)C1CCN(S(=O)(=O)c2cc(Cl)ccc2Cl)CC1
152 to 154 | CCC1(CCCCN2CCN(c3ccc(Cl)cc3)CC2)C(=O)Nc2c(Cl)cc(Cl)cc21 (centres undefined)
160 to 161 | Cc1c(C)c2c(c(C)c1O)SC(CCC(N)=O)O2 (centres undefined)
76 to 78 | COCc1cccc2c1OCCC(C(=O)OC)=C2
270 to 272 | CSc1nc(O)nc(-c2ccncc2)n1
172 to 174 | NCCN1C(=O)c2ccccc2C1(O)c1ccccc1Cl (centres undefined)
224 | Oc1c2c(c3nccc4c3c1CCC4)CCCC2
113 to 115 | CC(=O)S[C@H]1CC[C@H](/C=C/C=C/c2ccc(C(F)(F)F)cc2)CC1

melting point [°C] | SMILES
90 to 91 | CC(CC1CCCCC1)N(C)C(=O)COCC(=O)O (centres undefined)
118 | CCC(=O)C1=C(O)CC(c2cc3ccccc3cc2C)CC1=O (centres undefined)
232 to 234 | Cc1ccc2c(c1)C=Cn1c(n[nH]c1=O)C2
68 to 70 | O=C=Nc1c(Br)cccc1Br
156 | Cn1cnc(COc2ccc(-c3cc(-c4nc(C(C)(C)C)[nH]c4-c4ccccn4)ccn3)cc2)c1
95 to 100 | OC1COC(c2ccc(Cl)cc2)OC1 (centres undefined)
106 | CC(=O)SC(CC(=O)c1ccc(Oc2ccccc2)cc1)C(=O)O (centres undefined)
224 to 226 | O=C(O)C1=Cc2cc(Cl)c(Oc3ccc(Cl)cc3Br)cc2OC1C(F)(F)F (centres undefined)
114 to 116 | CCc1c(C)nc2ccc(Cl)cn2c1=O
179 to 184 | CNC(=S)NCCCCc1c[nH]c(NC(=N)N)n1
72 to 77 | COC(=O)c1ccc2c(c1)C=CC(=CCl)CO2
134 to 135 | Cc1nnc(CNc2c(C)cccc2C)o1
109 to 110 | CCOC(=O)CCCOc1ccc(C2=NNC(=O)CC2)cc1Cl
56 to 58 | COC(=O)c1ccc2c(c1CBr)OCO2
222 to 223 | O=C(O)Cc1c(-c2ccccc2)c2cc(Cl)c(Cl)cc2oc1=O
198 to 199 | N#Cc1cnn2c1N(C(=O)CCl)CC=C2c1ccc(Cl)cc1
245 to 247 | CCNc1nc(C)c(-c2ccnc(Nc3ccc(N4CCNCC4)cc3)n2)s1
66 | FC(F)(F)c1ccc(Oc2cc(Cl)nc(Cl)c2)c(Cl)c1
170 | CC(C)(C)c1cccc(S(=O)(=O)n2c(C(F)c3ccc(C(=O)O)cc3)cc3cc(C(F)(F)F)ccc32)c1 (centres undefined)
118 to 125 | CC(C)OP(=O)(OCN1C(=O)c2c(C(C)C)cc(OCC(=O)O)cc2S1(=O)=O)OC(C)C
318 to 328 | c1ccc2oc(-c3ccc(-c4nc5ccccc5o4)cc3)nc2c1

SMILES | melting point [°C]
CC12C=CC(=O)C(N=C=S)=C1C=CC1C2CCC2(C)C(=O)CCC12 (centres undefined) | 146 to 166
OC1CCN(c2ccccc2)C12CCNCC2 (racemic) | 141 to 144
